#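 All cell lines were grown in 96-well plates and treated with compound for 48 hours. GI50 marks 50% less growth. TGI denotes the concentration required for complete inhibition of growth.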
# What was measured:
# Assay in all cases: growth of human tumour cells (NCI), 48 h
# SF-268 CNS = tested on: SF-268 CNS
# A498 renal = tested on: A498 renal
# OVCAR-5 ovarian = tested on: OVCAR-5 ovarian
# RXF 393 renal = tested on: RXF 393 renal
# MOLT-4 leukemia = tested on: MOLT-4 leukemia
# HOP-62 NSCLC = tested on: HOP-62 NSCLC
# SN12C renal = tested on: SN12C renal
# MCF7 breast = tested on: MCF7 breast
# HS 578T breast = tested on: HS 578T breast
# NCI/ADR-RES ovarian = tested on: NCI/ADR-RES ovarian
SMILES,TGI (SF-268 CNS) [µM],TGI (A498 renal) [µM],TGI (OVCAR-5 ovarian) [µM],TGI (RXF 393 renal) [µM],TGI (MOLT-4 leukemia) [µM],TGI (HOP-62 NSCLC) [µM],TGI (SN12C renal) [µM],GI50 (SF-268 CNS) [µM],GI50 (A498 renal) [µM],GI50 (MCF7 breast) [µM],TGI (MCF7 breast) [µM],GI50 (OVCAR-5 ovarian) [µM],GI50 (HS 578T breast) [µM],TGI (HS 578T breast) [µM],GI50 (NCI/ADR-RES ovarian) [µM],TGI (NCI/ADR-RES ovarian) [µM],GI50 (MOLT-4 leukemia) [µM],GI50 (HOP-62 NSCLC) [µM],GI50 (SN12C renal) [µM]
CC(=O)NNc1nc(C)c(C(=O)NNC(=O)C(=O)Nc2ccccc2C#N)s1,> 100,> 100,> 100,> 100,> 100,> 100,> 100,,,,,,,,,,,,
CCCCCn1c(=N)n(CC(O)COc2cccc(C)c2)c2ccccc21 (centres undefined),23.9,13,25.2,,11.1,25.6,19,10.7,1.49,2.85,11.6,9.82,5.5,24.8,10.5,27.1,3.08,12,5.41
N#CC(C(=O)/C(=N/NC(=O)c1ccccc1O)C(C#N)c1ccc(Cl)cc1)c1ccc(Cl)cc1 (centres undefined),32.2,25.5,34.3,16.4,,38.7,26.4,,,,,,,,,,,,
CNS(=O)(=O)NN(C)S(=O)(=O)c1ccc(F)cc1,> 100,> 100,> 100,> 100,> 100,> 100,> 100,,,,,,,,,,,,
Cc1cc(N(CCC#N)S(=O)(=O)c2ccccc2)ccc1/C=C1N=C(/C=C/c2ccccc2)OC\1=O,> 100,> 100,> 100,> 100,> 100,> 100,> 100,,,,,,,,,,,,
COc1cccc(NC(=O)CC(=O)N2N=C(N(CCC#N)c3ccc(Cl)cc3)CC2c2ccccc2)c1 (centres undefined),> 100,> 100,> 100,> 100,> 100,> 100,> 100,,,,,,,,,,,,
Cc1cccc(NC(=O)CC(=O)N2N=C(N(CCC#N)c3ccc(Cl)cc3)CC2c2ccccc2)c1 (centres undefined),> 100,,> 100,> 100,> 100,> 100,> 100,,,,,,,,,,,,
N#C/C(=C1\OC(=O)C(c2ccc(Br)cc2)=C1O)c1ccc(Br)cc1,29.5,28.9,33.2,26.7,57.1,33.3,23.6,,,,,,,,,,,,
COc1ccc2c(c1)C(O)(C(F)(F)F)c1cc(C(=O)C(F)(F)F)c3ccccc3c1N2 (centres undefined),24.1,27.4,27.5,23.8,33.8,,,,,,,,,,,,,,
CCOC(=O)C1=C(C)N(Cc2ccccc2)C(C)=C(C(=O)OCC)C1c1ccccc1O,> 100,91.4,> 100,60.2,32.3,99.2,> 100,,,,,,,,,,,,
CN(C(=O)C12C3C4C5C3C1(C(=O)O)C5C42)C(C)(C)C (centres undefined),> 100,> 100,> 100,,> 100,> 100,> 100,,,,,,,,,,,,
CC1=NOC(=O)/C1=C/c1ccccc1O,> 100,,> 100,,> 100,> 100,> 100,,,,,,,,,,,,
C[N+](C)(C)CC(=O)N/N=C(/Cc1nc2c3c(ccc2[nH]c1=O)C(=O)c1ccccc1C3=O)C(=O)Nc1ccc(Cl)c(Cl)c1,> 100,> 100,> 100,> 100,> 100,> 100,> 100,,,,,,,,,,,,
C=CCC1([C@H](C)[C@@H](OC(C)=O)c2cc(OC)c(OC)c(OC)c2)C[C@@H](OC)CCC1=O (some centres undefined),50.7,,,26.6,94.3,85.3,37,,,,,,,,,,,,
Cc1sc(C(=O)Nc2cc(C(=O)NCCCN(C)C)n(C)c2)cc1NC(=O)CCCN1C(=O)c2cccc3cccc(c23)C1=O,> 100,> 100,> 100,,> 100,> 100,> 100,> 100,> 100,> 100,> 100,> 100,> 100,> 100,> 100,> 100,88.3,> 100,> 100
CC(=O)NC(CCCNCc1ccccc1)C(=O)NCc1ccccc1 (centres undefined),> 100,> 100,> 100,> 100,> 100,> 100,> 100,,,,,,,,,,,,
O=C(O)c1ccc([Se][Se]c2ccc(C(=O)O)cc2)cc1,> 100,,66.8,52.9,,,> 100,,,,,,,,,,,,
